# From patent US6348309B1, “Process for inactivating viruses in blood and blood products” (priority 1989, dated 2002)
# Experiments:
# Semliki Forest = type: cell-based
# coagulation factor VIII = molecular target: T1, coagulation factor VIII (Homo sapiens, UniProt P00451); assay: Coagulation factor activity in human plasma right after MB addition (Example 9); type: biochemical; details: no light
# T1 construct: Varying amounts of MB were added to human plasma (2 ml aliquots); from tissue; host or cells: human plasma
# T1 sequence (P00451 20-1332 limits assumed): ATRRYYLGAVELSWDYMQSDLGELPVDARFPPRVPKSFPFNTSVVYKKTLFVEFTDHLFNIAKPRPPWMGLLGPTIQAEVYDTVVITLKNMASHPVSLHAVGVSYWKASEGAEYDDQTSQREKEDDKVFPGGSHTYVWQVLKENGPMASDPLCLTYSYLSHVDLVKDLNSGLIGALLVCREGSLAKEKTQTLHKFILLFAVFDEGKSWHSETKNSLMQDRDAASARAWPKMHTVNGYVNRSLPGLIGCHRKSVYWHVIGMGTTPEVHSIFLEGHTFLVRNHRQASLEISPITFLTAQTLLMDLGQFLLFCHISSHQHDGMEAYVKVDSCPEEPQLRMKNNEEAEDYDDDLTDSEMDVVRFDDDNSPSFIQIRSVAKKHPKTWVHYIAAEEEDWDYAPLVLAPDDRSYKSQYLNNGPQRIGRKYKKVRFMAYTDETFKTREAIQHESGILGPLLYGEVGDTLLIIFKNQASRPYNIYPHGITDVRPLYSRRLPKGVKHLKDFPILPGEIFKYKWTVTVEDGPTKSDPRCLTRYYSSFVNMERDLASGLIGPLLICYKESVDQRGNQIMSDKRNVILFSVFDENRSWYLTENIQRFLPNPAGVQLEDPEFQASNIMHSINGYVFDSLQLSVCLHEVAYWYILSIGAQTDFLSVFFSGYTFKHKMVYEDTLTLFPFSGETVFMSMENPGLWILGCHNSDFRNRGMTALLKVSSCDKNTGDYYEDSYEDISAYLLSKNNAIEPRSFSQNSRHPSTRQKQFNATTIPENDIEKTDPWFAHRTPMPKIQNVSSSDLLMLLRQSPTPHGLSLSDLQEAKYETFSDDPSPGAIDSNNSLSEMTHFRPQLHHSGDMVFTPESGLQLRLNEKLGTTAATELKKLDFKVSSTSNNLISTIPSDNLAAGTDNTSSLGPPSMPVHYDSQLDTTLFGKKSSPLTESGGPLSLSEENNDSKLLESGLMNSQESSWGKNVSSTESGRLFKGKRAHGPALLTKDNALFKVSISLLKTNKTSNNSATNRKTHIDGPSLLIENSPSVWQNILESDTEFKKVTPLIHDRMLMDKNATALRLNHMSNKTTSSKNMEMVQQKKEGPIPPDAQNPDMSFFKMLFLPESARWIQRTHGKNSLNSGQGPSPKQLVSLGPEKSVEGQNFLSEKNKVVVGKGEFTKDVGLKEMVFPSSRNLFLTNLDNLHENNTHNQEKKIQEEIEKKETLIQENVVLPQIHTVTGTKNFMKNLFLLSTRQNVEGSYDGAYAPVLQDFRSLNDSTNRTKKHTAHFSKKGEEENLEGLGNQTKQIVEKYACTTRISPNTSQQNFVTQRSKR
# T1 sequence (P00451 1668-2351 limits assumed): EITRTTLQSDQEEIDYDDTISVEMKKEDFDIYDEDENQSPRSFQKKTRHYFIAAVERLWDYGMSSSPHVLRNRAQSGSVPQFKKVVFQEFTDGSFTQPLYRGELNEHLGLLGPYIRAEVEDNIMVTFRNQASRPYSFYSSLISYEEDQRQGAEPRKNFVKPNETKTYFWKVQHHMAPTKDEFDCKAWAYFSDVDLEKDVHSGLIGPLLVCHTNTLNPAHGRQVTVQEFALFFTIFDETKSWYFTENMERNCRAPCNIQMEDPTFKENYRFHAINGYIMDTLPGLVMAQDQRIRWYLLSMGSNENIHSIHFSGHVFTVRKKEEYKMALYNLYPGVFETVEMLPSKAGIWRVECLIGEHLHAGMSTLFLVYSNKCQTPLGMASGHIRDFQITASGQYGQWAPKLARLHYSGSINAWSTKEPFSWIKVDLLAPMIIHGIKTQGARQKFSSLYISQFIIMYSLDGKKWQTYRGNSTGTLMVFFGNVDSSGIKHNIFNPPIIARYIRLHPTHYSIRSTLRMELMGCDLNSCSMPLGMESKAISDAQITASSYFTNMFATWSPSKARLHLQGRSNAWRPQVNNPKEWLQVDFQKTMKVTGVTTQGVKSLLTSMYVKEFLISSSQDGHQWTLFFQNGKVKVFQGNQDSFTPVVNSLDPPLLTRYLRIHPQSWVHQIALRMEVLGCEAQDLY
# HIV-1 = assay: MB/light virus inactivation in plasma (Example 6, Table VI); type: cell-based; details: illumination 10 min
# SV40 = type: cell-based
# VSV [1] = type: cell-based, vesicular stomatitis virus
# coagulation factor V = molecular target: T2, coagulation factor V (Homo sapiens, UniProt P12259); assay: Coagulation factor activity in human plasma with MB and light exposure (Example 10); type: biochemical
# T2 construct: Varying amounts of MB were added to human plasma (2 ml aliquots); from tissue; host or cells: human plasma
# T2 sequence (P12259 29-2224): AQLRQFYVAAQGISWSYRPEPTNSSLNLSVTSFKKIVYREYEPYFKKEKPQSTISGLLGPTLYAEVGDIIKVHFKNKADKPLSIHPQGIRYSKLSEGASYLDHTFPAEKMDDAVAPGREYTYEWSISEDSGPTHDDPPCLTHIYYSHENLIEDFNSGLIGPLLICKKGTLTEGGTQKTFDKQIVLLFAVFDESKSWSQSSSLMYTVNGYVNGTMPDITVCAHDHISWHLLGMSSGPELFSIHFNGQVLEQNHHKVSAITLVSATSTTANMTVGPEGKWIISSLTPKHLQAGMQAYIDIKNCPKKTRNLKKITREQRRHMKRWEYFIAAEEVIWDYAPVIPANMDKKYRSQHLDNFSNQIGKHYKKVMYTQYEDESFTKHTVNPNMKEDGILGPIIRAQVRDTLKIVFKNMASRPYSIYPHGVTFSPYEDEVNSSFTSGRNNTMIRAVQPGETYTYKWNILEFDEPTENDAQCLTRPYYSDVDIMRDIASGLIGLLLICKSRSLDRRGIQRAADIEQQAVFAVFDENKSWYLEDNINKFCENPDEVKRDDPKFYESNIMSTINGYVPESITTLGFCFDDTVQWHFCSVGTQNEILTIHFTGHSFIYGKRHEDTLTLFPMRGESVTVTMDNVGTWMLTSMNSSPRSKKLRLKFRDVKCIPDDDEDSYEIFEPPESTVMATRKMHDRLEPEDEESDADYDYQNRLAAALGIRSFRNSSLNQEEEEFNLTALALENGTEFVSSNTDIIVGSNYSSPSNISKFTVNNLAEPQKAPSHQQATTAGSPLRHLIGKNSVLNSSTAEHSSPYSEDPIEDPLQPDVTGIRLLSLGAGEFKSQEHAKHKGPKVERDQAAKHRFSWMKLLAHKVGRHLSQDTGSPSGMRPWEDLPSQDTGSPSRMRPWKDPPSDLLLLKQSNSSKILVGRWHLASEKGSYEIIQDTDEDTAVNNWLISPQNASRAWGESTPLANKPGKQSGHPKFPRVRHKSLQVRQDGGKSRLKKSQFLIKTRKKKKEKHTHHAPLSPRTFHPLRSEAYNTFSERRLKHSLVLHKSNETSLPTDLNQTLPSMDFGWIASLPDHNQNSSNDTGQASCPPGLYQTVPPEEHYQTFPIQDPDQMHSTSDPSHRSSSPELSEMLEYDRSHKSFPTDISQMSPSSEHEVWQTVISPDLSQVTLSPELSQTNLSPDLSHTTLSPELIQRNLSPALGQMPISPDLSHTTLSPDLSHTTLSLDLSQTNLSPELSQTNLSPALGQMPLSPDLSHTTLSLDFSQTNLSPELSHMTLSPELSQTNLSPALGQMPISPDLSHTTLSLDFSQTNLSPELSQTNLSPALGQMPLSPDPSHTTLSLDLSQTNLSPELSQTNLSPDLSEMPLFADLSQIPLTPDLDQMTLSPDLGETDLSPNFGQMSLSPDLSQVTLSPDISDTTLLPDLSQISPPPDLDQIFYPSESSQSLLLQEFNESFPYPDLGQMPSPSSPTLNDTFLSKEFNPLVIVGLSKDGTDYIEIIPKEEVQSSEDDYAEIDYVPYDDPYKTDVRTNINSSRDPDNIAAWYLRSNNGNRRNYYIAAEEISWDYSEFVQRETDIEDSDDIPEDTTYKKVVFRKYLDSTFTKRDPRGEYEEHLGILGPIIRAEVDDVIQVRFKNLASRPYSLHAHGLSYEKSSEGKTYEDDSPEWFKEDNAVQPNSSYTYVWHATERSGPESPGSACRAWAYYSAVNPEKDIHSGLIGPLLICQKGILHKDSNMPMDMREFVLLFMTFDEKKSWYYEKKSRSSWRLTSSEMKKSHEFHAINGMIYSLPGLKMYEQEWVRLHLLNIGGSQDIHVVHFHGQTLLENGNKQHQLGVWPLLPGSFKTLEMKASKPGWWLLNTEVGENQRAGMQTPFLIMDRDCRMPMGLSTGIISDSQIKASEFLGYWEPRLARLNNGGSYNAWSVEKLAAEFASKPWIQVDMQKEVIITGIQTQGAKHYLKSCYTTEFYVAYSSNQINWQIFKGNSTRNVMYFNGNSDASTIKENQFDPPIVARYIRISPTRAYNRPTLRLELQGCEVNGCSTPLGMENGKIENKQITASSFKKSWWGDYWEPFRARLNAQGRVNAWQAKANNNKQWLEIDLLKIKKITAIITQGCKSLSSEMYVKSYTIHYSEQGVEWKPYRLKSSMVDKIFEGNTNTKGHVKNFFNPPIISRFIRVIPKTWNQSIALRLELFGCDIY
# factor V = molecular target: T3, factor V (Homo sapiens, UniProt P12259); assay: Factor V content of plasma after MB and adsorbing agent (Example 14); type: biochemical; details: fresh plasma + MB 10 μM, no adsorbing agent
# T3 construct: MB was added to 250 ml fresh plasma; from tissue; host or cells: fresh plasma
# T3 sequence (P12259 29-2224): as above
# VSV [2] = type: cell-based, vesicular stomatitis virus; remark: listed apart in the source
# VSV [3] = type: cell-based, vesicular stomatitis virus; remark: listed apart in the source
# [4] = 1 to 2 mg/kg of body weight; cited from earlier work
# adenovirus = assay: Photodynamic treatment of adenovirus with pre-incubation in the dark, titrated on FL cells (Example 7); type: cell-based; details: MB 1 μM; for Virus Titer: illumination 30 min 150,000 Lux
smiles,measurement,setting,value
"CN(C)c1ccc2nc3ccc(=[N+](C)C)cc-3sc2c1 [MB, methylene blue]",Inactivation Rate,Semliki Forest,>7.00 log10 TCID50
same,Factor VIII,coagulation factor VIII; Methylene Blue 1 μM,0.41 E/ml
same,Factor VIII,coagulation factor VIII; Methylene Blue 2.5 μM,0.41 E/ml
same,Factor VIII,coagulation factor VIII; Methylene Blue 5 μM,0.38 E/ml
same,Factor VIII,coagulation factor VIII; Methylene Blue 10 μM,0.35 E/ml
same,Factor VIII,coagulation factor VIII; Methylene Blue 20 μM,0.28 E/ml
same,MB concentration from which factor VIII activity is inhibited,coagulation factor VIII,about 10 μM
same,Inactivation Rate,HIV-1,>6.50 log10 TCID50
same,Inactivation Rate,SV40,>4.00 log10 TCID50
same,concentration of MB required for complete inactivation of VSV,VSV [1],0.5 µM
same,inactivation factor (VSV completely inactivated),VSV [1],more than 4 log10
same,Factor V,"coagulation factor V; light exposure 0 h, MB 1 μM",0.86 E/ml
same,Factor V,"coagulation factor V; light exposure 0 h, MB 2.5 μM",0.82 E/ml
same,Factor V,"coagulation factor V; light exposure 0 h, MB 10 μM",0.72 E/ml
same,Factor V,"coagulation factor V; light exposure 1 h, MB 1 μM",0.72 E/ml
same,Factor V,"coagulation factor V; light exposure 1 h, MB 2.5 μM",0.68 E/ml
same,Factor V,"coagulation factor V; light exposure 1 h, MB 10 μM",0.47 E/ml
same,Factor V,"coagulation factor V; light exposure 2 h, MB 1 μM",0.64 E/ml
same,Factor V,"coagulation factor V; light exposure 2 h, MB 2.5 μM",0.68 E/ml
same,Factor V,"coagulation factor V; light exposure 2 h, MB 10 μM",0.60 E/ml
same,Factor V,"coagulation factor V; light exposure 4 h, MB 1 μM",0.56 E/ml
same,Factor V,"coagulation factor V; light exposure 4 h, MB 2.5 μM",0.49 E/ml
same,Factor V,"coagulation factor V; light exposure 4 h, MB 10 μM",0.42 E/ml
same,Factor V,factor V,0.96 U/ml
same,reduction of infectious titer of VSV,VSV [2],more than 5 log10-steps
same,reduction of infectious VSV titer,VSV [3],more than 6 log10
same,side effects in therapeutic use,[4],without any significant side effects
same,Virus Titer,adenovirus; pre-incubation 0 h,6.0 log10 TCID50
same,Virus Titer,adenovirus; pre-incubation 1 h,5.5 log10 TCID50
same,Virus Titer,adenovirus; pre-incubation 4 h,6.0 log10 TCID50
same,Virus Titer,adenovirus; pre-incubation 24 h,6.0 log10 TCID50
same,change in viral infectivity,adenovirus; regardless of the pre-incubation time,no change in viral infectivity
